In US5914348A, “Substance FA-70D, process for producing the same, and uses thereof” (Taiho Pharmaceutical Co., Ltd., priority 1996, dated 1999):
Numbered stars: 1 amine (or outer) side, 2 acyl side, 3 side chain; on linkers, the order of the positions; unused ones are H or OH. Square brackets hold non-standard residues; d marks the D form. Peptide text beside a SMILES is read from it. Cit = NC(=O)NCCC[CH](N)C(=O)O; Phe(ol) = N[CH](CO)Cc1ccccc1; CO = O=C([*:1])[*:2]

Tests used:
cathepsin B = cathepsin B (Homo sapiens, UniProt P07858); assay: Inhibitory activity against cathepsin B (fluorescence, carbobenzoxy-L-phenylalanyl-L-arginine-4-methylcoumaryl-7-amide substrate); format: biochemical; conditions: pH 6.0, 40° C., read-out: Enzyme inhibitory activity (%)
Method: (§1) The inhibitory activity against cathepsin L or cathepsin B was assayed by the method of A. J. Barrett et al. [Biochemical Journal, 201, 189-198, 1982]. The chymotrypsin- or trypsin-hibitory activity was assayed in accordance with the methods described in Tsuru, D. and Funatsu, M. (ed.), Seikagaku Jikkenho-Tanpakushitsu Bunkai Koso II [Methods of Biochemistry, Proteolytic Enzymes II], vol. 31, 7-14, 1993.
(§2) The method for assay of inhibitory activity against cathepsin B is as follows. Thus, 0.5 ml of 400 mM sodium phosphate buffer (pH 6.0) containing 8 mM dithiothreitol and 4 mM tetrasodium ethylenediaminetetracetate, 0.8 ml of an enzyme solution containing 5 μM cathepsin B and 0.1% Brij 35 (Wako Pure Chemical Ind.), and 0.2 ml of an aqueous solution of the compound of the invention were preincubated at 40° C. for 10 minutes. […] The intensity of fluorescence (F) was determined at an exciting wavelength of 350 nm and an emission wavelength of 458 nm. As a control, 0.2 ml of water was added in lieu of 0.2 ml of said aqueous solution of the compound of the invention and the intensity of fluorescence (F0) at 458 nm was similarly measured. The enzyme inhibitory activity was calculated by means of the following formula. […]

cathepsin L = cathepsin L (Homo sapiens, UniProt P07711); assay: Inhibitory activity against cathepsin L (fluorescence, carbobenzoxy-L-phenylalanyl-L-arginine-4-methylcoumaryl-7-amide substrate); format: biochemical
Method: as §1
The method for assay of inhibitory activity against cathepsin B is as follows. Thus, 0.5 ml of 400 mM sodium phosphate buffer (pH 6.0) containing 8 mM dithiothreitol and 4 mM tetrasodium ethylenediaminetetracetate, 0.8 ml of an enzyme solution containing 5 μM cathepsin B and 0.1% Brij 35 (Wako Pure Chemical Ind.), and 0.2 ml of an aqueous solution of the compound of the invention were preincubated at 40° C. for 10 minutes. Then, 0.5 ml of a 0.1% aqueous solution of dimethyl sulfoxide containing 20 μM carbobenzoxy-L-phenylalanyl-L-arginine-4-methylcoumaryl-7-amide was added and the mixture was incubated at 40° C. for 10 minutes. The enzymatic reaction was then stopped by adding 2.0 ml of 100 mM sodium acetate buffer (pH 4.3) containing 100 mM sodium monochloroacetate. The intensity of fluorescence (F) was determined at an exciting wavelength of 350 nm and an emission wavelength of 458 nm. As a control, 0.2 ml of water was added in lieu of 0.2 ml of said aqueous solution of the compound of the invention and the intensity of fluorescence (F0) at 458 nm was similarly measured. The enzyme inhibitory activity was calculated by means of the following formula.
(§3) Enzyme inhibitory activity (%)=F/F0 ×100
The inhibitory activity against cathepsin L was assayed as follows. Thus, except that cathepsin L was used in lieu of cathepsin B at the same concentration and the 400 mM sodium phosphate buffer was adjusted to pH 5.5, the above assay procedure for cathepsin B was otherwise repeated to determine the enzyme inhibitory activity.

chymotrypsin = chymotrypsin (Bos taurus, UniProt P00766); assay: Inhibitory activity against chymotrypsin (fluorescence, succinyl-L-leucyl-L-leucyl-L-valyl-L-tyrosine-4-methylcoumaryl-7-amide substrate); format: biochemical
Method: as §1
(§4) The inhibitory activity against chymotrypsin was assayed in the following manner. Thus, 0.1 ml of 100 mM Tris-HCl buffer (pH 7.5), 0.15 ml of water, 0.01 ml of 5 ng/ml chymotrypsin/water, and 0.04 ml of an aqueous solution of the compound of the invention were preincubated at 37° C. for 5 minutes. Then, 0.1 ml of an aqueous solution containing 100 μM succinyl-L-leucyl-L-leucyl-L-valyl-L-tyrosine-4-methylcoumaryl-7-amide was added and the mixture was incubated at 37° C. for 20 minutes. The enzymatic reaction was stopped by adding 0.5 ml of 100 mM sodium acetate buffer (pH 4.3) containing 100 mM sodium monochloroacetate and the intensity of fluorescence (F) was measured at an exciting wavelength of 350 nm and an emission wavelength of 458 nm. As a control, 0.04 ml of water was added in lieu of 0.04 ml of said aqueous solution of the compound of the invention and the intensity of fluorescence (F0) at 458 nm was similarly measured. The enzyme inhibitory activity was calculated by the following formula.
as §3

trypsin = target: T1, trypsin (Bos taurus, UniProt P00760); assay: Inhibitory activity against trypsin (fluorescence, benzoyl-L-leucyl-L-lysyl-arginine-4-methylcoumaryl-7-amide substrate); format: biochemical; conditions: pH 7.5, 37° C., read-out: Enzyme inhibitory activity (%)
T1 sequence (P00760 24-246): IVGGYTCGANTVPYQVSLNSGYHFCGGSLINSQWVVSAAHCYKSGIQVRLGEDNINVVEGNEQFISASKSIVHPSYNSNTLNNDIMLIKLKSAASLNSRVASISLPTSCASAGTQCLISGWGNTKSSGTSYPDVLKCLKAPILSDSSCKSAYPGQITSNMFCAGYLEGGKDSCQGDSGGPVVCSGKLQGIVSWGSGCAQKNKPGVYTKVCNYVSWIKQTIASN
Method: as §1, §4, §3
The inhibitory activity against trypsin was measured as follows. Except that trypsin was used in lieu of chymotrypsin at the same concentration and benzoyl-L-leucyl-L-lysyl-arginine-4-methylcoumaryl-7-amide was used in lieu of succinyl-L-leucyl-L-leucyl-L-valyl-L-tyrosine-4-methylcoumaryl-7-amide at the same concentration, the above procedure for assaying the inhibitory activity against chymotrypsin was otherwise repeated and the enzyme inhibitory activity was calculated in the same manner as above.

papain = target: T2, papain (Carica papaya, UniProt P00784); assay: Assay of papain inhibitory activity; format: biochemical; conditions: used for identification during purification
T2 sequence (P00784 134-345): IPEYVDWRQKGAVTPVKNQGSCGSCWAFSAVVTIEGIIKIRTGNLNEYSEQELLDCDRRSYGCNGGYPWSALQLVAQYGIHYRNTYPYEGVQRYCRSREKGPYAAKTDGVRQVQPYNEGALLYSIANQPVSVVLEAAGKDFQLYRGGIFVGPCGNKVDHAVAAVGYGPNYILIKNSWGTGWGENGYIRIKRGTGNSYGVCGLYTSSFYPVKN
Method: Detection of active fractions containing Substance FA-70D in each stage was carried out by the assay of papain inhibitory activity (Biochemical Journal, 201, 189-198, 1982).
Thus, 0.5 ml of 400 mM sodium phosphate buffer (pH 6.8) containing 8 mM dithiothreitol and 4 mM tetrasodium ethylenediaminetetracetate, 0.8 ml of an enzyme solution containing 5 μM papain and 0.1% Brij 35 (polyoxyethylene (23) lauryl ether) (Wako Pure Chemical Ind.), and 0.2 ml of an aqueous solution containing a sample were preincubated at 40° C. for 10 minutes. Then, 0.5 ml of a 0.1% aqueous solution of dimethyl sulfoxide containing 20 μM carbobenzoxy-L-phenylalanyl-L-arginine-4-methylcoumaryl-7-amide was added and the mixture was incubated at 40° C. for 10 minutes. The enzymatic reaction was stopped by adding 2.0 ml of 100 mM sodium acetate buffer (pH 4.3) containing 100 mM sodium monochloroacetate and the intensity of fluorescence (F) was measured at an exciting wavelength of 350 nm and an emission wavelength of 458 nm. As a control, 0.2 ml of water was added in lieu of 0.2 ml of said aqueous solution of the sample and the intensity of fluorescence (F0) at 458 nm was similarly measured. The enzyme inhibitory activity was calculated by means of the following formula.
as §3

Solubility = format: physicochemical
[1] = test system: cathepsin series proteases; assay: Inhibition of cathepsin series proteases; format: biochemical
Method: as §1, §2

cathepsin L, sequence (P07711 114-333, species assumed): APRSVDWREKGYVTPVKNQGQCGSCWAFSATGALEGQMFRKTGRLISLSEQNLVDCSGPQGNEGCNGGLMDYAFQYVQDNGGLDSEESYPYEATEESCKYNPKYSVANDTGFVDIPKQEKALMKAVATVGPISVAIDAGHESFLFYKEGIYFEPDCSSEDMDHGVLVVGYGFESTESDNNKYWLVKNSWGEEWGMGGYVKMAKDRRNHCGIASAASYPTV

For `CC(C)C(NC(=O)C(CCCNC(N)=O)NC(=O)NC(Cc1ccccc1)C(=O)O)C(=O)NC(CO)Cc1ccccc1` (stereo not drawn) [Substance FA-70D] ({Phe-CO}-[Cit]-Val-[Phe(ol)]; configuration not given here), the inhibition at 1 µM (cathepsin B; FA-70D 10^-6 M) was 85.5%, the inhibition at 0.1 µM (cathepsin B; FA-70D 10^-7 M) was 23.7% and the “inhibits cathepsin L more strongly than cathepsin B” value (cathepsin L; cathepsin L vs cathepsin B, Test Example 1) was “inhibits cathepsin L more strongly than cathepsin B”. The inhibition at 1 µM (cathepsin L; cathepsin L, FA-70D 10^-6 M, pH 5.5, 40° C., read-out: Enzyme inhibitory activity (%)) was 93.5%, the inhibition at 0.1 µM (cathepsin L; cathepsin L, FA-70D 10^-7 M, pH 5.5, 40° C., read-out: Enzyme inhibitory activity (%)) was 72% and the inhibition at 0.01 µM (cathepsin L; cathepsin L, FA-70D 10^-8 M, pH 5.5, 40° C., read-out: Enzyme inhibitory activity (%)) was 15.1%. The “inhibits chymotrypsin more strongly than trypsin” value (chymotrypsin; chymotrypsin vs trypsin, Test Example 1) was “inhibits chymotrypsin more strongly than trypsin”, the inhibition at 1 µM (chymotrypsin; chymotrypsin, FA-70D 10^-6 M, pH 7.5, 37° C., read-out: Enzyme inhibitory activity (%)) was 99.9% and the inhibition at 0.1 µM (chymotrypsin; chymotrypsin, FA-70D 10^-7 M, pH 7.5, 37° C., read-out: Enzyme inhibitory activity (%)) was 97.6%. For the same molecule, the inhibition at 0.01 µM (chymotrypsin; chymotrypsin, FA-70D 10^-8 M, pH 7.5, 37° C., read-out: Enzyme inhibitory activity (%)) was 70.7%, the inhibition at 1 µM (trypsin; FA-70D 10^-6 M) was 43.3% and the inhibition at 0.1 µM (trypsin; FA-70D 10^-7 M) was 14%. For the same molecule, the inhibition at 0.01 µM (trypsin; FA-70D 10^-8 M) was 9.4%, the “enzymatic activity of papain inhibited by the substance” value (papain) was “inhibited by the substance” and the Solubility (Solubility; in chloroform, acetone, ethyl acetate, ether, and hexane) was “Practically insoluble”. The Solubility (Solubility; in ethanol) was “slightly soluble”, the Solubility (Solubility; in methanol and dimethylsulfoxide) was “readily soluble” and the “inhibit cathepsin series proteases” value [1] was “strongly inhibit”.
